Common to all, as to type: physicochemical
Series [1] is described as follows: Solution stability (pH 5.2) at high temperature, impurities by HPLC. The following applies: solution 1 mg/mL; for Total impurities, 4th day: 4 days; for Total impurities, 7th day: 7 days; for Total impurities, 14th day: 14 days. The protocol: Solution Stability (pH 5.2)
Sibutramine free base, sibutramine hydrochloride monohydrate and sibutramine inclusion complex (Examples 1 and 2) were compared in terms of solution stability at high temperature.
Specifically, each compound was dissolved into the concentration of 1 mg/mL and pH 5.2, and the solution was moved to a 20 mL vial. Solution stability test was conducted at 60° C. and 70° C., respectively, by measuring the content of impurities with high performance liquid chromatography (HPLC) after the storage for 4, 7 and 14 days.

The nature of series [2]: Temperature & humidity stability, impurities by HPLC. The following applies: for Content of impurities, 60° C., 75%: stored at 60° C. 75% for 2 weeks; for Content of impurities, 60° C., 93%: stored at 60° C. 93% for 2 weeks; for Content of impurities, 70° C., 75%: stored at 70° C. 75% for 2 weeks. On the procedure: Temperature & Humidity Stability
Sibutramine free base, sibutramine hydrochloride monohydrate and sibutramine inclusion complex (Examples 1 and 2) were compared in terms of temperature and humidity stability.
Specifically, each compound was stored under the condition selected from the group consisting of 60° C. 75%, 60° C. 93% and 70° C. 75% for 2 weeks. The content impurities was measured with high performance liquid chromatography (HPLC).

A short description of series [3]: Photo-stability after UV-irradiation, impurities by HPLC. Particulars: for Content of impurities, UV: after UV-irradiation for 120 hours (total radiation dosage: 200 watt); for Content of impurities, Initial: before UV-irradiation. On the procedure:
Sibutramine free base, sibutramine hydrochloride monohydrate and sibutramine inclusion complex (Examples 1 and 2) were compared in terms of photo-stability.
After UV-irradiation for 120 hours (total radiation dosage: 200 watt), the content of impurities was measured with high performance liquid chromatography (HPLC).

Consider two compounds from patent publication US20100099773A1, “INCLUSION COMPLEX OF S[…] BETA-CYCLODEXTRIN” (priority 2006, published 2010).

SMILES strings stand for the structures.

Turning to `CC(C)CC(N(C)C)C1(c2ccc(Cl)cc2)CCC1` (centres unmarked) [Sibutramine free base, N,N-dimethyl-1-[1-(4-chlorophenyl)-cyclobutyl]-3-methylbutylamine], in series [1] (pH 5.2, 60 C.), the “Total impurities, 4th day” value is listed as 7.59%; the “Total impurities, 7th day” value came out at 13.77%; the “Total impurities, 14th day” value came to 17.16%; the “Total impurities, Initial” value is listed as 0.00%. Besides, in series [1] (pH 5.2, 70 C.), the “Total impurities, 4th day” value was found to be 10.04%; the “Total impurities, 7th day” value is on record as 17.05%; the “Total impurities, 14th day” value is 20.52%; the “Total impurities, Initial” value is 0.00%. In series [2] (comparison of Table 3), the “Temperature and humidity stability, in words” value is “most unstable”. In series [2], the “Content of impurities, Initial” value amounted to 0.00; the “Content of impurities, 60° C., 75%” value was found to be 5.65; the “Content of impurities, 60° C., 93%” value is recorded as 6.09; the “Content of impurities, 70° C., 75%” value was determined as 8.27. In series [3], the “Content of impurities, UV” value was 0.33 and the “Content of impurities, Initial” value is recorded as 0.00.

`CC(C)CC(N(C)C)C1(c2ccc(Cl)cc2)CCC1.Cl` (centres unmarked) [Sibutramine hydrochloride monohydrate]: in series [1] (pH 5.2, 60 C.), the “Total impurities, 4th day” value came to 0.02%; the “Total impurities, 7th day” value turned out to be 0.02%; the “Total impurities, 14th day” value stood at 0.09%; the “Total impurities, Initial” value is listed as 0.00%. Also, in series [1] (pH 5.2, 70 C.), the “Total impurities, 4th day” value stood at 1.56%; the “Total impurities, 7th day” value was determined as 2.09%; the “Total impurities, 14th day” value stood at 4.49%; the “Total impurities, Initial” value came out at 0.00%. In addition, in series [2], the “Content of impurities, Initial” value was 0.00; the “Content of impurities, 60° C., 75%” value amounted to 0.06; the “Content of impurities, 60° C., 93%” value is reported as 0.07; the “Content of impurities, 70° C., 75%” value is 0.13. In addition, in series [3], the “Content of impurities, UV” value was determined as 0.11 and the “Content of impurities, Initial” value turned out to be 0.06.
